Source: EP4592286A1, “MACROCYCLIC NITROGEN-CONTAINING CROWN ETHER COMPOUND AND USE THEREOF AS PROTEIN KINASE INHIBITOR” (Artivila Biopharma, priority 2022, dated 2024)

What was measured:
LRRK2 = LRRK2 (Homo sapiens, UniProt Q5S007); experiment: experiment of inhibiting kinase activity, LRRK2; assay type: biochemical; conditions: for inhibition at 0.1 µM: at 100 nM; for inhibition at 0.1 µM / inhibition at 0.01 µM: read-out: inhibition rate LRRK2; for IC50: kinase activity assay, Table 3; for inhibition at 0.01 µM: at 10 nM
Sequence of LRRK2 (Q5S007 whole entry): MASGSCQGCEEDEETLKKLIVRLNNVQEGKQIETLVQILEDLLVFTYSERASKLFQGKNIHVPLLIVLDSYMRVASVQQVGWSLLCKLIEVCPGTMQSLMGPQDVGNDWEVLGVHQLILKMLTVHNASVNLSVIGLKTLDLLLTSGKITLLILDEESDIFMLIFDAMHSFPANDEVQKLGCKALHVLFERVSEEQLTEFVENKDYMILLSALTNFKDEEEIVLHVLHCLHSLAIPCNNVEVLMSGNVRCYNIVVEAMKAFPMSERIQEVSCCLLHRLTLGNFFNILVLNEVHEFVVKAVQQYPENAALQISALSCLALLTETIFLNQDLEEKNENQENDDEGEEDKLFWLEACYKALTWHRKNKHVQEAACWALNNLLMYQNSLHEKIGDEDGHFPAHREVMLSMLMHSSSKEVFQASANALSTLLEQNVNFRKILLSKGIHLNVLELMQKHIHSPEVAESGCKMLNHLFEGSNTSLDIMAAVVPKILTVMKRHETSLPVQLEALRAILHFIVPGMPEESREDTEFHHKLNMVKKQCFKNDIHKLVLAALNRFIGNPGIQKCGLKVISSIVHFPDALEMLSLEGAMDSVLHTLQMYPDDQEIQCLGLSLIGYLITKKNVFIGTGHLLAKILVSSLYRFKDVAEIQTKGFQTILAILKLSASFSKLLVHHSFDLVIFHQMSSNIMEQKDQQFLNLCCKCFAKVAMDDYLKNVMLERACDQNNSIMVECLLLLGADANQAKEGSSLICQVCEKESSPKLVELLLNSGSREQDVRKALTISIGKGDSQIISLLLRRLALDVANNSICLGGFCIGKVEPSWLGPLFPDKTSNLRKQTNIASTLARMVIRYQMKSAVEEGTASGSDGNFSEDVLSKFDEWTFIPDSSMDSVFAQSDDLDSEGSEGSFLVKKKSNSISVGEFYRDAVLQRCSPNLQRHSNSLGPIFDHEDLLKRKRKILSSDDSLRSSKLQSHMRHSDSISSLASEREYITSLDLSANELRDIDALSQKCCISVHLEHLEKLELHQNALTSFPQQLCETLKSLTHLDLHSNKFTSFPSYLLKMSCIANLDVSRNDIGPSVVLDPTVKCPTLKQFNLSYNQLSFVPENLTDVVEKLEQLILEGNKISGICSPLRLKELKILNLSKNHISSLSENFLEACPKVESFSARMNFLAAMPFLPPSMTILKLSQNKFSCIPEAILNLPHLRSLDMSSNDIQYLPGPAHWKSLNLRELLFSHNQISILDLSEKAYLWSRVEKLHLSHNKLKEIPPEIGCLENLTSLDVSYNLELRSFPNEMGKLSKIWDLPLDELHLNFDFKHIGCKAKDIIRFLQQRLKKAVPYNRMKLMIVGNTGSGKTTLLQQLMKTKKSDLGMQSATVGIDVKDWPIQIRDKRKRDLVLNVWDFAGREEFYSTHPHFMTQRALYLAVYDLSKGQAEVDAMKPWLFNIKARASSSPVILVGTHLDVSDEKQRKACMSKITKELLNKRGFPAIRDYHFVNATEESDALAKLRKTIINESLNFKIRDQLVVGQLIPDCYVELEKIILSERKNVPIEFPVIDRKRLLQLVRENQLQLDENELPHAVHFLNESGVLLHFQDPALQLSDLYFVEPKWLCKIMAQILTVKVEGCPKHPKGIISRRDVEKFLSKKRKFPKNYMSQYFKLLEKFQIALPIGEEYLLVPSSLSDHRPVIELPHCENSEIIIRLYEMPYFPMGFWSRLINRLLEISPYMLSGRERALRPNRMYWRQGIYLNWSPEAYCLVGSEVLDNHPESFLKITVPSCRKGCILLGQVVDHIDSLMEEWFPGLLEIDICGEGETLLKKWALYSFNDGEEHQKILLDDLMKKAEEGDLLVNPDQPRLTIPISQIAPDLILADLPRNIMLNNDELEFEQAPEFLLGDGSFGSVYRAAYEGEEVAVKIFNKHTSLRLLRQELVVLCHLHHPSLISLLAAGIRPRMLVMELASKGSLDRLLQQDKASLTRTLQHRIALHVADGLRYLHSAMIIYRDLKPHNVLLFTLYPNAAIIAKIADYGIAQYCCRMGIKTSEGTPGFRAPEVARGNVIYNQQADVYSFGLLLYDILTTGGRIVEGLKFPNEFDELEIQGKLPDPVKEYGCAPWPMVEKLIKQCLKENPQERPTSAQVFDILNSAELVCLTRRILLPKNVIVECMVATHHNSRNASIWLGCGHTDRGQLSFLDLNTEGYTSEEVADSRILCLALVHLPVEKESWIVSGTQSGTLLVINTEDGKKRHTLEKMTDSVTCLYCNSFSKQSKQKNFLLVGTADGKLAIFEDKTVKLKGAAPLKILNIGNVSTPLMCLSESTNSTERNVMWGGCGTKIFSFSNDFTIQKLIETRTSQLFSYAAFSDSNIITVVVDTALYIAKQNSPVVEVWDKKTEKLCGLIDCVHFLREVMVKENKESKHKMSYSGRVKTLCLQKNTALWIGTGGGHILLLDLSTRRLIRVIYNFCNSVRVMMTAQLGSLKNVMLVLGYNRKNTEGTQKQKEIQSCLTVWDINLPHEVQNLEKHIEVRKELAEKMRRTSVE
Description: (§1) The inhibition rates of tested compounds on JAK1, JAK2, JAK3, TYK2, CDK7, CDK9, EGFR (T790M) and LRRK2 kinases were measured. The test concentrations of the compounds were 10 nM and 100 nM, and the detection was performed by replicate wells. Alternatively, compounds were 3-fold serial diluted from 10 µM for 10 concentrations in replicate wells.

JAK2 = JAK2 (Homo sapiens, UniProt O60674); experiment: experiment of inhibiting kinase activity (Caliper mobility shift assay), JAK2; assay type: biochemical; conditions: for inhibition at 0.01 µM: at 10 nM; for inhibition at 0.01 µM / inhibition at 0.1 µM: read-out: inhibition rate JAK2; for inhibition at 0.1 µM: at 100 nM; for IC50: kinase activity assay, Table 3
Sequence of JAK2 (O60674 whole entry): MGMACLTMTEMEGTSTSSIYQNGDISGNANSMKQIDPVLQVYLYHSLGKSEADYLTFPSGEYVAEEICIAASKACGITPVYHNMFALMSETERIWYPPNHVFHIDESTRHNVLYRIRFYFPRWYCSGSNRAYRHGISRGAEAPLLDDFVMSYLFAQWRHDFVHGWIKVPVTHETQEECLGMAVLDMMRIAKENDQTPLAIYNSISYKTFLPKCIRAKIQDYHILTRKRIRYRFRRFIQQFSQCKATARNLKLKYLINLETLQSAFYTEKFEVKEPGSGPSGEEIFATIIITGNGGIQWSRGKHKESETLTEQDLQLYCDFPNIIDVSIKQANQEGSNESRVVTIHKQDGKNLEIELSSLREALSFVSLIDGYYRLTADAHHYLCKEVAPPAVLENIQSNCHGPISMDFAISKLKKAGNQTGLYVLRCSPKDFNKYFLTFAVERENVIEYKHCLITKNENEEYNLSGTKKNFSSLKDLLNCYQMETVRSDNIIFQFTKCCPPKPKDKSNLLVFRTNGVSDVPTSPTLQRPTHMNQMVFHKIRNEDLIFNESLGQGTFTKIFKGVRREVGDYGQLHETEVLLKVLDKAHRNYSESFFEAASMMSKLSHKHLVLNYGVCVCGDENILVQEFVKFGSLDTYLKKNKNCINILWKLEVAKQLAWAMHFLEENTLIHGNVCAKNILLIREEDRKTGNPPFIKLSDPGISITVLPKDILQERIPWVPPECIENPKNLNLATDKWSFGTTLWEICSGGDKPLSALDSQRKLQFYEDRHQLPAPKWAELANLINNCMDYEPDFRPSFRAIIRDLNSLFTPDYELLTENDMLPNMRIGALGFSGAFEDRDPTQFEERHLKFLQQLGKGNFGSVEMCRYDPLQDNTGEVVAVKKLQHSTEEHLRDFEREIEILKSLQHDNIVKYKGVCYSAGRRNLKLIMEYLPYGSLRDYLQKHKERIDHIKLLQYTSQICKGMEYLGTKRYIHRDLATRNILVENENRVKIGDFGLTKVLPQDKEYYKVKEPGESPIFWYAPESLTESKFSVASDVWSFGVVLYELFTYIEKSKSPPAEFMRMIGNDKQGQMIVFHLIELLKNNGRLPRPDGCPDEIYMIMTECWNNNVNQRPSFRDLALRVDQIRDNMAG
Method in brief: (§2)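 Replicate wells; top concentration 10 µM, 3-fold steps, 10 points (or 10 nM/100 nM single doses). Enzyme preincubated 10 min RT with compound; ATP/substrate start; stop solution; Caliper conversion read. IC50 by Hill-slope curve fit.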

JAK1 [1] = biological target: T1, JAK1 (Homo sapiens, UniProt P23458); experiment: JAKs cell activity test: detection of pSTAT6 in THP1 cells induced by JAK1_IL-4; assay type: cell-based; conditions: pSTAT6, IL-4-induced THP1 cells
T1 sequence (P23458 whole entry): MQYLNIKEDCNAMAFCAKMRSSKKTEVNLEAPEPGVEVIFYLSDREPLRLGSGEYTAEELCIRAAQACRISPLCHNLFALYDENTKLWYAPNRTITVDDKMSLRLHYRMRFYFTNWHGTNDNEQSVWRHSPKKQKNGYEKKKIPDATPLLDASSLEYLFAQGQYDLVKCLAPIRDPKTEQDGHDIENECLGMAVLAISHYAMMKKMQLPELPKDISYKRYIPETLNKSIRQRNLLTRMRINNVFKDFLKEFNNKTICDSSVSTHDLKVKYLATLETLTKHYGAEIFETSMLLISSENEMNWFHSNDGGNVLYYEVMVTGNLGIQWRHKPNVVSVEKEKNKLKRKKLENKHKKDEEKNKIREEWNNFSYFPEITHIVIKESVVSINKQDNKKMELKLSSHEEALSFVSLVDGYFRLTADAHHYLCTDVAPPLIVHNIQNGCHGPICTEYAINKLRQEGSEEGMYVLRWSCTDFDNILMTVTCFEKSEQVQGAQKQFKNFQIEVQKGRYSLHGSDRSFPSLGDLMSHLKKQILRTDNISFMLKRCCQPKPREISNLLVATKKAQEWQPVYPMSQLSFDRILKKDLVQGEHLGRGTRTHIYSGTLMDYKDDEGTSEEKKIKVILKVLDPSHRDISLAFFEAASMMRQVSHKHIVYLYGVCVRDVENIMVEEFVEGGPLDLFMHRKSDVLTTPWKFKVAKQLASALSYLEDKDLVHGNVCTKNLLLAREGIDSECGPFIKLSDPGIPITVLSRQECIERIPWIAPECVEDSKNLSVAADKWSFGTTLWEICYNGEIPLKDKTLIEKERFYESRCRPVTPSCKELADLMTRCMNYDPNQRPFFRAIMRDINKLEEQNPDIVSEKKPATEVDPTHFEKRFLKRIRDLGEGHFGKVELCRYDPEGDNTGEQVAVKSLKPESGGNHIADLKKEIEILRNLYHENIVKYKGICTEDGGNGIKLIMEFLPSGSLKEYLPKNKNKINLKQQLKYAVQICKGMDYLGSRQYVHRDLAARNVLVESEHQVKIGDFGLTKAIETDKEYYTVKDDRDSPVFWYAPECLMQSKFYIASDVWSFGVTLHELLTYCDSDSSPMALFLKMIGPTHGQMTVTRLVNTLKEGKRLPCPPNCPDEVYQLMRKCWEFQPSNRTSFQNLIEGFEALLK
Description: Detection of pSTAT6 in THP1 cells induced by JAK1_IL-4
(§3) THP1 cells were collected by centrifugation, resuspended with 1×HBSS, counted and diluted to a certain cell density. They were inoculated in a 384-well plate and cultured in a saturated humidity incubator with 37 °C and 5% CO2. The compound (DMSO final volume of 0.3%) was added to THP1 cells (10 doses in duplicates) and cultured in a saturated humidity incubator with 37 °C and 5% CO2. hIL-4 was added to stimulate cells and cultured in a saturated humidity incubator with 37 °C and 5% CO2. The lysis solution was added and incubated at room temperature. According to the instructions of AlphaLISA SureFire Ultra p-STAT6 detection kit, the lysis solution was transferred to pSTAT6 detection system, and the ALPHA signal was read by PE Envision microplate reader. The inhibition rate Inh%=((DMSO-sample)/(DMSO-background))×100 was calculated. IC50 was obtained by fitting with GraphPad Prism non-linear regression equation, and y=Bottom+(Top-Bottom)/(1+10^((LogIC50-x)×hillslope)), where x was the concentration of the compound and y was the inhibition rate.

JAK3 [2] = biological target: T2, JAK3 (Mus musculus, UniProt Q62137); experiment: JAKs cell activity test: JAK3_pSTAT5 in IL-2-induced CTLL-2 cells; assay type: cell-based; conditions: pSTAT5, IL-2-induced CTLL-2 cells
T2 construct: endogenous in cells; host or cells: CTLL-2
T2 sequence (Q62137 1-1100): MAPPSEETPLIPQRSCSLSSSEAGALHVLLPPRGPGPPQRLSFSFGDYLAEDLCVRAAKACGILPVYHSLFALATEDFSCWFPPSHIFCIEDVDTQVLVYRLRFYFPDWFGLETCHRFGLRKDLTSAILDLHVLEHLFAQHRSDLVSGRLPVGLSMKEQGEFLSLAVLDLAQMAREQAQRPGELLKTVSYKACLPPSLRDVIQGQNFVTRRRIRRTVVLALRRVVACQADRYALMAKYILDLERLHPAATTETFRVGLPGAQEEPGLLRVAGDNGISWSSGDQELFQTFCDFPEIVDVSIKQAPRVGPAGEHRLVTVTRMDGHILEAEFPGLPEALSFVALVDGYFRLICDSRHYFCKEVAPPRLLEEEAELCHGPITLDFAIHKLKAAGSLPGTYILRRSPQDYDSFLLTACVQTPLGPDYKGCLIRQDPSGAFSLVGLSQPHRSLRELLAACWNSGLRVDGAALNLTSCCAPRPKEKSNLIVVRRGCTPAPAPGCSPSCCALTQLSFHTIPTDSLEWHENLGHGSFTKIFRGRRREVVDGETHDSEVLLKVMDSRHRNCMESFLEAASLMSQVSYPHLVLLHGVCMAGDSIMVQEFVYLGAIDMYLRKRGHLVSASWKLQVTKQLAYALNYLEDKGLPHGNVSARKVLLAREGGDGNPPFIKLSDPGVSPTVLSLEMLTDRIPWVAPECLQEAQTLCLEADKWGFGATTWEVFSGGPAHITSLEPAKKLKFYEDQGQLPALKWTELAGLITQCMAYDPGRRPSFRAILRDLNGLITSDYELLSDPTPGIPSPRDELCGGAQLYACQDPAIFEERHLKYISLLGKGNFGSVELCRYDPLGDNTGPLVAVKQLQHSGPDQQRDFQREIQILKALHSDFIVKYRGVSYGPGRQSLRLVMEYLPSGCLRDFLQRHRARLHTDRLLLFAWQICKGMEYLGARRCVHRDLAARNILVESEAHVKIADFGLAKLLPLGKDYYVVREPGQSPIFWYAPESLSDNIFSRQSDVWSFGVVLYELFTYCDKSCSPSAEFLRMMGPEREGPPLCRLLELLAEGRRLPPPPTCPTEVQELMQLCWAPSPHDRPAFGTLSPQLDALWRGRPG
Description: as §3
JAK2_pSTAT5 was tesed in IL-3-induced BAF3 cells according to the above steps, and JAK3_pSTAT5 was tested in IL-2-induced CTLL-2 cells (without serum stimulation) according to the above steps.

JAK1 [3] = biological target: T1, JAK1; experiment: experiment of inhibiting kinase activity (Caliper mobility shift assay), JAK1; assay type: biochemical; conditions: for inhibition at 0.1 µM: at 100 nM; for IC50: kinase activity assay, Table 3
Method in brief: as §2

JAK3 [4] = biological target: T3, JAK3 (Homo sapiens, UniProt P52333); experiment: experiment of inhibiting kinase activity (Caliper mobility shift assay), JAK3; assay type: biochemical; conditions: at 10 nM; read-out: inhibition rate JAK3
T3 sequence (P52333 1-1124): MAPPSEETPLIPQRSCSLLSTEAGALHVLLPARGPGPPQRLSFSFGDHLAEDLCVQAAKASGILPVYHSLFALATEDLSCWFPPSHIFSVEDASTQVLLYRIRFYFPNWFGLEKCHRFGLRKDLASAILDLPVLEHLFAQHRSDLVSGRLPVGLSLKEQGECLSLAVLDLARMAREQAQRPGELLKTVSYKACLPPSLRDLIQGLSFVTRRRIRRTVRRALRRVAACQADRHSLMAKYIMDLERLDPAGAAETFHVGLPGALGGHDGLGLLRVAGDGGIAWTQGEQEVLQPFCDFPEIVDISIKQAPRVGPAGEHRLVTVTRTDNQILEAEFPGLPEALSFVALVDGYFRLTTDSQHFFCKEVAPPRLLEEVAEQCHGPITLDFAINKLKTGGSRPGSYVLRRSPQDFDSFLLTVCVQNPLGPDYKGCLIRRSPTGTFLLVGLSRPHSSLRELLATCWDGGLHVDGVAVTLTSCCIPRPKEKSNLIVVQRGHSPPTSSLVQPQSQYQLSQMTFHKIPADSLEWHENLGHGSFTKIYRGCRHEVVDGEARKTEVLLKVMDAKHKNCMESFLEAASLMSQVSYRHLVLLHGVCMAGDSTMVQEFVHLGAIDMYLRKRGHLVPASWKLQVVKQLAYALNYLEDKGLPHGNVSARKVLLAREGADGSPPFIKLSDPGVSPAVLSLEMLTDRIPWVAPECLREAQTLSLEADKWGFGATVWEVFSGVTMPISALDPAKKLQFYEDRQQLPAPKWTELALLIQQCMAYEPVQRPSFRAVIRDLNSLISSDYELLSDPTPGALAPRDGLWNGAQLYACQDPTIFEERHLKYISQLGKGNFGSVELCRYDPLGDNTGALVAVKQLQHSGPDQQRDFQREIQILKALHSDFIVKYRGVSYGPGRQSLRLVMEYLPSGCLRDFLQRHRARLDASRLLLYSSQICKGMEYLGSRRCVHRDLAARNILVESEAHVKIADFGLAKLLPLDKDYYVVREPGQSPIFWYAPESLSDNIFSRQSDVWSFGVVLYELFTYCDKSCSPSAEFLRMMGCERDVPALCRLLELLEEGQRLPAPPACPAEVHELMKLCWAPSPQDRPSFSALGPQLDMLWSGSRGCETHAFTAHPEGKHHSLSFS
Method in brief: as §2

wild-type LRRK2 = biological target: T4, wild-type LRRK2 (Homo sapiens, UniProt Q5S007); experiment: detection of phosphorylated S935 in HEK293T overexpressing wild-type LRRK2; assay type: cell-based; conditions: pS935, HEK293T overexpressing wild-type LRRK2, 1.5 hours
T4 construct: pCMV-flag-WT LRRK2 (full-length); expressed in transfected cells; host or cells: HEK293T
T4 sequence (Q5S007 whole entry): as the sequence (Q5S007 whole entry) above
Description: (§4) Detection of phosphorylated S935 in HEK293T Overexpressing full-length LRRK2 (G2019S) or wild-type LRRK2
(§5) HEK293T cells was inoculated into a 6-well plate and cultured overnight. The next day, they were transiently transfected with plasmid pcDNA5-FRT/TO-FLAG LRRK2 (G2019S, full-length) or pCMV-flag-WT LRRK2 (full-length) by using Superfect transfection reagent and cultured at 37°C and 5% CO2 for 20-24 hours. The next day, cells were collected, resuspended at a density of 0.48×10^6 cells/ml, and inoculated into a 384-well plate at 50 microliters/well. Compound or DMSO solutions (volume ratio of 0.5%) were added by Tecan, and cultured at 37°C and 5% CO2 for 1.5 hours. After 1.5 hours, the supernatant was discarded, 50 microliters of 8% PFA were added in each well to fix the cells, and the cells were incubated at room temperature for 1 hour. The plate was washed with EL406 plate washer for three times, with 115 microliters of PBST per well, and the culture plate was patted to dryness. The cells were blocked with 50 microliters/well of Licor Odyssey blocking solution (0.1% Tween 20) at room temperature for 1.5 hours. The blocking solution was discarded and the culture plate was patted to dryness. 20 microliters of primary antibody (1:1000(pS935), diluted with Licor Odyssey buffer (0.1% Tween20)) was added into each well, and incubated at 4 °C overnight. The next day, the first antibody was discarded and washing was performed with PBST for five times. 20 microliters of secondary antibody (diluted with Licor Odyssey buffer (0.1% Tween20) at 1:500 and stained with DNA at 1:2000) were added into each well, and incubated at room temperature for 1 hour. The second antibody was discarded, and washing was performed for three times with PBST. The fluorescence intensity was measured by LICOR Odyssey imager Scanner, and the data was analyzed.

TYK2 = TYK2 (Homo sapiens, UniProt P29597); experiment: experiment of inhibiting kinase activity, TYK2; assay type: biochemical; conditions: at 10 nM; read-out: inhibition rate TYK2
Description: as §1

LRRK2 (G2019S) = biological target: T5, LRRK2 (G2019S) (Homo sapiens, UniProt Q5S007, G2019S); experiment: detection of phosphorylated S935 in HEK293T overexpressing full-length LRRK2 (G2019S); assay type: cell-based; conditions: pS935, HEK293T overexpressing LRRK2 (G2019S), 1.5 hours
T5 construct: pcDNA5-FRT/TO-FLAG LRRK2 (G2019S, full-length); expressed in transfected cells; host or cells: HEK293T
T5 sequence (Q5S007 whole entry G2019S): as the sequence (Q5S007 whole entry) above, with G2019S counted along it
Description: as §4, §5

Row | Compound | inhibition at 0.1 µM (LRRK2) [%] | IC50 (LRRK2) [nM] | inhibition at 0.01 µM (JAK2) [%] | inhibition at 0.1 µM (JAK2) [%] | IC50 (JAK2) [nM] | EC50 (JAK1 [1]) [nM] | EC50 (JAK3 [2]) [nM] | inhibition at 0.01 µM (JAK1 [3]; at 10 nM, read-out: inhibition rate JAK1) [%] | inhibition at 0.1 µM (JAK1 [3]; read-out: inhibition rate JAK1) [%] | IC50 (JAK1 [3]) [nM] | inhibition at 0.01 µM (JAK3 [4]) [%] | inhibition at 0.01 µM (LRRK2) [%] | EC50 (wild-type LRRK2) [nM] | inhibition at 0.01 µM (TYK2) [%] | EC50 (LRRK2 (G2019S)) [nM]
1 | CN1CCOc2ccc(Nc3nc(-c4cnn(C(CC#N)C5CCCC5)c4)c4cc[nH]c4n3)cc2OCC1 (centres unmarked) [Example 27, 3-cyclopentyl-3-(4-(2-((4-methyl-3,4,5,6-tetrahydro-2H-benzo[b][1,4,7]dioxazolin-9-yl)amino)-7H-pyrrolo[2,3-d]pyrimidin-4-yl)-1H-pyrazol-1-yl)propanenitrile] | > 80 | < 50 | > 80 | > 80 | < 50 | < 50 | < 50 | 40 to 79 | > 80 | < 50 | – | – | – | – | –
2 | C=CC(=O)Nc1cccc(Nc2nc(Nc3ccc4c(c3)OCCN(C)CCO4)ncc2Cl)c1 [Example 55, N-(3-((5-chloro-2-((4-methyl-3,4,5,6-tetrahydro-2H-benzo[b][1,4,7]dioxazolin-9-yl)amino)pyrimidin-4-yl)amino)phenyl)acrylamide] | – | – | 25 to 39 | – | – | – | 50 to 500 | – | – | – | > 80 | – | – | – | –
3 | CN1CCOc2ccc(Nc3nc(Nc4ccccc4P(C)(C)=O)c4cc[nH]c4n3)cc2OCC1 [Example 73, dimethyl(2-((2-((4-methyl-3,4,5,6-tetrahydro-2H-benzo[b][1,4,7]dioxazolin-9-yl)amino)-7H-pyrrolo[2,3-d]pyrimidin-4-yl)amino)phenyl)phosphine oxide] | – | < 50 | > 80 | – | – | – | – | – | – | – | > 80 | > 80 | < 500 | 40 to 79 | < 500
4 | CN1CCOc2ccc(Nc3nc(-c4ccc(C(=O)NCC#N)cc4)c4cc[nH]c4n3)cc2OCC1 [Example 2, N-(cyanomethyl)-4-(2-((4-methyl-3,4,5,6-tetrahydro-2H-benzo[b][1,4,7]dioxazolin-9-yl)amino)-7H-pyrrolo[2,3-d]pyrimidin-4-yl)benzamide] | > 80 | < 50 | 40 to 79 | > 80 | < 50 | < 50 | – | – | > 80 | < 50 | – | – | < 500 | – | –
5 | CC(C)S(=O)(=O)c1ccccc1Nc1nc(Nc2ccc3c(c2)OCCN(C)CCO3)ncc1C(F)(F)F [Example 82, N^4-(2-(isopropylsulfonyl)phenyl)-N^2-(4-methyl-3,4,5,6-tetrahydro-2H-benzo[b][1,4, 7]dioxazolin-9-yl)-5-(trifluoromethyl)pyrimidin-2,4-diamine] | – | < 50 | 40 to 79 | – | – | – | – | – | – | – | – | > 80 | < 500 | 40 to 79 | < 500
